Test results from ChEMBL document CHEMBL3885861, “Open TG-GATES”.

Species: Rattus norvegicus
Assay: Open TG-GATES - Regimen: Single
Assay type: toxicity, organism-based, Sprague-Dawley
Set-up: regimen Single, gender Male, age 6 weeks
Conditions: in vivo, po, route gavage; for APTT / Bas / Eos / Fbg / Hb / Ht / Lym / MCH / MCHC / MCV / Mono / Neu / PT / Plat / RBC / Ret / WBC: tissue Blood; for KIDNEY_L / KIDNEY_R / KIDNEY_TOTAL: tissue Kidney; for LIVER: tissue Liver; for A/G / ALP / ALT / AST / BUN / CRE / Ca / Cl / DBIL / GLC / IP / K / LDH / Na / PL / RALB / TBIL / TC / TG / TP / gamma-GTP: tissue Plasma
[1] = 300 mg/kg, 3 h, dose level Middle
[2] = 300 mg/kg, 6 h, dose level Middle
[3] = 300 mg/kg, 9 h, dose level Middle
[4] = 300 mg/kg, 24 h, dose level Middle
[5] = 1000 mg/kg, 3 h, dose level High
[6] = 1000 mg/kg, 6 h, dose level High
[7] = 1000 mg/kg, 9 h, dose level High
[8] = 1000 mg/kg, 24 h, dose level High

CN/C(=N/CCSCc1nc[nH]c1C)NC#N [CIMETIDINE]
TERMINAL_BW [1]: 213.9 g
APTT [1]: 17.7 s
Bas [1]: 0%
Eos [1]: 0.8%
Fbg [1]: 212 mg/dL
Hb [1]: 12.6 g/dL
Ht [1]: 37.5%
Lym [1]: 77.6%
MCH [1]: 21.5 pg
MCHC [1]: 33.7%
MCV [1]: 63.8 fL
Mono [1]: 3%
Neu [1]: 17.2%
PT [1]: 12.8 s
Plat [1]: 128.8 x10_4/uL
RBC [1]: 587.2 x10_4/ul
Ret [1]: 8.2%
WBC [1]: 84.3 x10_2/uL
KIDNEY_L [1]: 1 g
KIDNEY_R [1]: 0.9 g
KIDNEY_TOTAL [1]: 1.9 g
LIVER [1]: 10.5 g
A/G [1]: 1.6
ALP [1]: 1248.6 IU/L
ALT [1]: 37.4 IU/L
AST [1]: 68.6 IU/L
BUN [1]: 10.8 mg/dL
CRE [1]: 0.4 mg/dL
Ca [1]: 10.7 mg/dL
Cl [1]: 103.4 meq/L
DBIL [1]: 0.072 mg/dL
GLC [1]: 191.2 mg/dL
IP [1]: 8.8 mg/dL
K [1]: 4.1 meq/L
LDH [1]: 155.6 IU/L
Na [1]: 140.8 meq/L
PL [1]: 158 mg/dL
RALB [1]: 3.3 g/dL
TBIL [1]: 0.1 mg/dL
TC [1]: 83 mg/dL
TG [1]: 57 mg/dL
TP [1]: 5.4 g/dL
gamma-GTP [1]: 1.4 IU/L
TERMINAL_BW [2]: 209.1 g
APTT [2]: 19.5 s
Bas [2]: 0%
Eos [2]: 1%
Fbg [2]: 224 mg/dL
Hb [2]: 13 g/dL
Ht [2]: 37.3%
Lym [2]: 72.4%
MCH [2]: 21.6 pg
MCHC [2]: 34.8%
MCV [2]: 62.2 fL
Mono [2]: 3.4%
Neu [2]: 22.6%
PT [2]: 13.4 s
Plat [2]: 134.4 x10_4/uL
RBC [2]: 600.8 x10_4/ul
Ret [2]: 7.9%
WBC [2]: 100.3 x10_2/uL
KIDNEY_L [2]: 1 g
KIDNEY_R [2]: 1 g
KIDNEY_TOTAL [2]: 1.9 g
LIVER [2]: 9.3 g
A/G [2]: 1.7
ALP [2]: 926.2 IU/L
ALT [2]: 38.2 IU/L
AST [2]: 68 IU/L
BUN [2]: 8.4 mg/dL
CRE [2]: 0.4 mg/dL
Ca [2]: 10.4 mg/dL
Cl [2]: 103.2 meq/L
DBIL [2]: 0.068 mg/dL
GLC [2]: 185 mg/dL
IP [2]: 9.6 mg/dL
K [2]: 3.8 meq/L
LDH [2]: 148.6 IU/L
Na [2]: 141 meq/L
PL [2]: 138.2 mg/dL
RALB [2]: 3.4 g/dL
TBIL [2]: 0.1 mg/dL
TC [2]: 70.2 mg/dL
TG [2]: 60 mg/dL
TP [2]: 5.5 g/dL
gamma-GTP [2]: 1.4 IU/L
TERMINAL_BW [3]: 208.3 g
APTT [3]: 20.6 s
Bas [3]: 0%
Eos [3]: 0.8%
Fbg [3]: 214.4 mg/dL
Hb [3]: 12.6 g/dL
Ht [3]: 36.5%
Lym [3]: 80.2%
MCH [3]: 21.6 pg
MCHC [3]: 34.5%
MCV [3]: 62.6 fL
Mono [3]: 2.6%
Neu [3]: 15.6%
PT [3]: 13.9 s
Plat [3]: 126.2 x10_4/uL
RBC [3]: 583.4 x10_4/ul
Ret [3]: 7.8%
WBC [3]: 70.7 x10_2/uL
KIDNEY_L [3]: 1 g
KIDNEY_R [3]: 1 g
KIDNEY_TOTAL [3]: 1.9 g
LIVER [3]: 8.8 g
A/G [3]: 1.7
ALP [3]: 807.2 IU/L
ALT [3]: 31 IU/L
AST [3]: 58.6 IU/L
BUN [3]: 9.8 mg/dL
CRE [3]: 0.4 mg/dL
Ca [3]: 10.3 mg/dL
Cl [3]: 102 meq/L
DBIL [3]: 0.068 mg/dL
GLC [3]: 189.8 mg/dL
IP [3]: 10.3 mg/dL
K [3]: 3.9 meq/L
LDH [3]: 115.6 IU/L
Na [3]: 141 meq/L
PL [3]: 136 mg/dL
RALB [3]: 3.4 g/dL
TBIL [3]: 0.1 mg/dL
TC [3]: 72.4 mg/dL
TG [3]: 36.4 mg/dL
TP [3]: 5.5 g/dL
gamma-GTP [3]: 1.6 IU/L
TERMINAL_BW [4]: 223.6 g
APTT [4]: 19.1 s
Bas [4]: 0%
Eos [4]: 0.8%
Fbg [4]: 214.8 mg/dL
Hb [4]: 13.5 g/dL
Ht [4]: 40.7%
Lym [4]: 82.2%
MCH [4]: 21.5 pg
MCHC [4]: 33.3%
MCV [4]: 64.5 fL
Mono [4]: 2.2%
Neu [4]: 13.6%
PT [4]: 12.7 s
Plat [4]: 126.7 x10_4/uL
RBC [4]: 631.2 x10_4/ul
Ret [4]: 6.5%
WBC [4]: 86.6 x10_2/uL
KIDNEY_L [4]: 1 g
KIDNEY_R [4]: 1 g
KIDNEY_TOTAL [4]: 2 g
LIVER [4]: 10.7 g
A/G [4]: 1.6
ALP [4]: 1056 IU/L
ALT [4]: 35.8 IU/L
AST [4]: 67.8 IU/L
BUN [4]: 15.4 mg/dL
CRE [4]: 0.4 mg/dL
Ca [4]: 10.9 mg/dL
Cl [4]: 102.2 meq/L
DBIL [4]: 0.09 mg/dL
GLC [4]: 200.8 mg/dL
IP [4]: 7.4 mg/dL
K [4]: 3.9 meq/L
LDH [4]: 183.4 IU/L
Na [4]: 140.8 meq/L
PL [4]: 159.8 mg/dL
RALB [4]: 3.5 g/dL
TBIL [4]: 0.2 mg/dL
TC [4]: 77.8 mg/dL
TG [4]: 94 mg/dL
TP [4]: 5.6 g/dL
gamma-GTP [4]: 1.6 IU/L
TERMINAL_BW [5]: 215.2 g
APTT [5]: 19.1 s
Bas [5]: 0%
Eos [5]: 1%
Fbg [5]: 216.2 mg/dL
Hb [5]: 12.3 g/dL
Ht [5]: 36.7%
Lym [5]: 76.4%
MCH [5]: 21.2 pg
MCHC [5]: 33.5%
MCV [5]: 63.1 fL
Mono [5]: 3%
Neu [5]: 18.6%
PT [5]: 13.1 s
Plat [5]: 126.2 x10_4/uL
RBC [5]: 582 x10_4/ul
Ret [5]: 7.9%
WBC [5]: 89.9 x10_2/uL
KIDNEY_L [5]: 1 g
KIDNEY_R [5]: 1 g
KIDNEY_TOTAL [5]: 2 g
LIVER [5]: 9.8 g
A/G [5]: 1.7
ALP [5]: 1031 IU/L
ALT [5]: 35.6 IU/L
AST [5]: 67 IU/L
BUN [5]: 8.6 mg/dL
CRE [5]: 0.4 mg/dL
Ca [5]: 10.6 mg/dL
Cl [5]: 104.4 meq/L
DBIL [5]: 0.068 mg/dL
GLC [5]: 181.8 mg/dL
IP [5]: 8.3 mg/dL
K [5]: 4 meq/L
LDH [5]: 175 IU/L
Na [5]: 141.4 meq/L
PL [5]: 150.2 mg/dL
RALB [5]: 3.3 g/dL
TBIL [5]: 0.1 mg/dL
TC [5]: 77.6 mg/dL
TG [5]: 46.6 mg/dL
TP [5]: 5.3 g/dL
gamma-GTP [5]: 1 IU/L
TERMINAL_BW [6]: 211.9 g
APTT [6]: 19 s
Bas [6]: 0%
Eos [6]: 0.8%
Fbg [6]: 227.4 mg/dL
Hb [6]: 13.2 g/dL
Ht [6]: 38.2%
Lym [6]: 78%
MCH [6]: 21.7 pg
MCHC [6]: 34.5%
MCV [6]: 63 fL
Mono [6]: 2.8%
Neu [6]: 17.2%
PT [6]: 13.5 s
Plat [6]: 125.8 x10_4/uL
RBC [6]: 607.4 x10_4/ul
Ret [6]: 7.6%
WBC [6]: 100.8 x10_2/uL
KIDNEY_L [6]: 1 g
KIDNEY_R [6]: 1 g
KIDNEY_TOTAL [6]: 2 g
LIVER [6]: 9.6 g
A/G [6]: 1.5
ALP [6]: 955 IU/L
ALT [6]: 34.2 IU/L
AST [6]: 65.8 IU/L
BUN [6]: 8.2 mg/dL
CRE [6]: 0.4 mg/dL
Ca [6]: 10.6 mg/dL
Cl [6]: 103.6 meq/L
DBIL [6]: 0.078 mg/dL
GLC [6]: 200.8 mg/dL
IP [6]: 9.8 mg/dL
K [6]: 4 meq/L
LDH [6]: 162.2 IU/L
Na [6]: 142.4 meq/L
PL [6]: 153.4 mg/dL
RALB [6]: 3.4 g/dL
TBIL [6]: 0.1 mg/dL
TC [6]: 75.6 mg/dL
TG [6]: 83.2 mg/dL
TP [6]: 5.6 g/dL
gamma-GTP [6]: 1.2 IU/L
TERMINAL_BW [7]: 208.6 g
APTT [7]: 18.7 s
Bas [7]: 0%
Eos [7]: 1%
Fbg [7]: 229.2 mg/dL
Hb [7]: 13.1 g/dL
Ht [7]: 37.4%
Lym [7]: 80%
MCH [7]: 22.1 pg
MCHC [7]: 35.1%
MCV [7]: 63 fL
Mono [7]: 2.4%
Neu [7]: 15.6%
PT [7]: 14.1 s
Plat [7]: 120.4 x10_4/uL
RBC [7]: 594.2 x10_4/ul
Ret [7]: 7.9%
WBC [7]: 94.9 x10_2/uL
KIDNEY_L [7]: 0.9 g
KIDNEY_R [7]: 0.9 g
KIDNEY_TOTAL [7]: 1.9 g
LIVER [7]: 8.9 g
A/G [7]: 1.7
ALP [7]: 1031 IU/L
ALT [7]: 32.8 IU/L
AST [7]: 62.4 IU/L
BUN [7]: 8.2 mg/dL
CRE [7]: 0.4 mg/dL
Ca [7]: 10.3 mg/dL
Cl [7]: 103.6 meq/L
DBIL [7]: 0.068 mg/dL
GLC [7]: 193.6 mg/dL
IP [7]: 9.7 mg/dL
K [7]: 3.7 meq/L
LDH [7]: 157 IU/L
Na [7]: 142 meq/L
PL [7]: 150.4 mg/dL
RALB [7]: 3.5 g/dL
TBIL [7]: 0.1 mg/dL
TC [7]: 77.2 mg/dL
TG [7]: 58.6 mg/dL
TP [7]: 5.5 g/dL
gamma-GTP [7]: 1.4 IU/L
TERMINAL_BW [8]: 223 g
APTT [8]: 19.3 s
Bas [8]: 0%
Eos [8]: 1%
Fbg [8]: 212.4 mg/dL
Hb [8]: 13.1 g/dL
Ht [8]: 39%
Lym [8]: 80.6%
MCH [8]: 21.3 pg
MCHC [8]: 33.6%
MCV [8]: 63.4 fL
Mono [8]: 2.4%
Neu [8]: 14.8%
PT [8]: 13 s
Plat [8]: 122.4 x10_4/uL
RBC [8]: 616 x10_4/ul
Ret [8]: 6.8%
WBC [8]: 101.7 x10_2/uL
KIDNEY_L [8]: 1 g
KIDNEY_R [8]: 1 g
KIDNEY_TOTAL [8]: 2 g
LIVER [8]: 10.6 g
A/G [8]: 1.6
ALP [8]: 1054.4 IU/L
ALT [8]: 34.2 IU/L
AST [8]: 68.8 IU/L
BUN [8]: 17.8 mg/dL
CRE [8]: 0.4 mg/dL
Ca [8]: 10.6 mg/dL
Cl [8]: 102 meq/L
DBIL [8]: 0.1 mg/dL
GLC [8]: 206.8 mg/dL
IP [8]: 7.7 mg/dL
K [8]: 3.8 meq/L
LDH [8]: 200 IU/L
Na [8]: 140 meq/L
PL [8]: 148 mg/dL
RALB [8]: 3.3 g/dL
TBIL [8]: 0.2 mg/dL
TC [8]: 76.2 mg/dL
TG [8]: 96.2 mg/dL
TP [8]: 5.4 g/dL
gamma-GTP [8]: 1.4 IU/L
